Source: patent US20060229358A1, “Pharmaceutical composition containing flavonoids” (Taipei Medical University, priority 2005, published 2006)
Read-outs that look alike come from different tables or passages of the source.

What was measured:
PDE4H (HARBS) [1] = details: cited from earlier work
PDE4L (LARBS) = details: reference [23]; read-out: EC50 for binding PDE4L; cited from earlier work
[2] = target: T1, high affinity rolipram binding sites (HARBS, PDE4H); assay: Binding to particulate HARBS of whole brain, displacement of [3H]-rolipram (Assay II); design: species or system guinea pig; details: 2 nM [3H]-rolipram, guinea pig whole brain particulates, FIG. 2; read-out: IC50 for displacement of [3H]-rolipram from HARBS
T1 construct: IC50 for displacement of [3H]-rolipram from HARBS; other: 300 μM, guinea pig, preliminary experimental data; other: guinea pig whole brain particulates; over 300 μM not available due
Procedure: The binding experiments are carried on basis of the methods of Schneider et al. and Zhao et al. with a small modification. Under a protocol approved by the Animal Care and Use Committee of Taipei Medical University, five male guinea pigs (Hartley), weighing 500-600 g, were anesthetized. The whole brains taken therefrom were homogenized with in 10 volumes of cold medium (pH 6.5) containing 20 mM Bis-Tris, 2 mM benzamidine, 2 mM EDTA, 50 mM sodium chloride, 0.1 mM phenylmethanesulfonyl fluoride (PMSF), and 1 mM dithiothreitol. At 4° C., the homogenate was centrifuged at 170 g for 15 min for removing blood vessels and connective tissues, and the supernatant thereof was then re-centrifuged at 40,000 g for 30 min for separating the particulates from the cytosol of cells.
After incubation, the reaction was stopped by transferring the reaction vessel to a bath of crashed ice. Then the reaction mixture was filtered through a punched glass fiber filter (Whatman GF/B) placed in a mini funnel, which was adopted to a 1.5 ml of Eppendorff's tube for collecting the filtrate in the mini centrifuge at 1000 rpm for 10 seconds. By the same way (centrifugation), it is further washed with 0.3 ml reaction buffer each for three times. The Whatman GF/B filter was mixed with 2 ml of cocktail and counted by the β-scintillation counter (Backman, Fullerton, Calif., USA) for counting the radioactivity thereof.

PDE4H (HARBS) [3] = assay: Literature binding to brain HARBS (PDE4H); details: worked out from the cited EC50 values
From the text: Recently, in United States of American and Europe, the selective inhibitors for the PDE4 are considered as the important materials for treating asthma or chronic obstructive pulmonary disease (COPD). In addition, the clinical trials thereof are considered safe and effective, whereas they have side effects, such as vomiting, gastric hypersecretion, etc.. […] In the brain, there are two binding sites for rolipram, which are high (HARBS) and low affinity rolipram binding sites (LARBS), while in the periphery of bronchi and lung there exist only LARBS. Generally, the anti-inflammatory and the bronchodilatory effects of rolipram are considered as its ability to bind with LARBS [21]. […] Therefore, the pharmaceutical factories in the world are trying to develop drugs with high PDE4H/PDE4L ratio for separating the side effects from the main therapeutic effects, while some progresses are obtained. […] Although the respective PDE4H/PDE4L ratios of roflumilast and cilomilast are much higher than that of rolipram, they are not good enough. […] It seems having a good perspective.

Row | IC50 [2] [nM] | PDE4H/PDE4L ratio (PDE4H (HARBS) [3]) | Compound | PDE4H/PDE4L ratio (PDE4H (HARBS) [1]; references [24-26]) | EC50 (PDE4L (LARBS)) [nM] | EC50 (PDE4H (HARBS) [1]; reference [23], read-out: EC50 for binding PDE4H) [nM]
1 |  |  | O=C(Nc1c(Cl)cncc1Cl)C(=O)c1cn(Cc2ccc(F)cc2)c2ccc(O)cc12 [AWD-12-281, N-(3,5-dichloro-pyrid-4-yl)-[1-(4-fluorobenzyl)-5-hydroxy-indole-3-yl]-gly oxylic acid amide] | about 11 |  | 
2 | 7.4 | 0.002 | COc1ccc(C2CNC(=O)C2)cc1OC1CCCC1 (centres unmarked) [rolipram] |  | ~1000 | ~2
